Data published in ChEMBL document CHEMBL5029193, “Design of Coibamide A Mimetics with Improved Cellular Bioactivity” (ACS Med Chem Lett, 2022).
Where a SMILES comes first, the peptide text is derived from it. Bridges are numbered along the chain shown (N, C = ends). [ ]: non-standard residue; d: D form. The star is where a group is joined. Bip = N[C@@H](Cc1ccc(-c2ccccc2)cc1)C(=O)O; dNMeaIle = CC[C@H](C)[C@@H](NC)C(=O)O; NMe2Val = CC(C)[C@@H](C(=O)*)N(C)C; NMeLys(Me) = CNCCCC[C@H](NC)C(=O)O; NMeI = CC[C@H](C)[C@H](NC)C(=O)O; NMeT = CN[C@H](C(=O)O)[C@@H](C)O; 2Pal = N[C@@H](Cc1ccccn1)C(=O)O; 3Pal = N[C@@H](Cc1cccnc1)C(=O)O; 4Pal = N[C@@H](Cc1ccncc1)C(=O)O; NMeL = CN[C@@H](CC(C)C)C(=O)O; NMeOrn = CN[C@@H](CCCN)C(=O)O; dNMeOrn = CN[C@H](CCCN)C(=O)O; dHiv = CC(C)[C@@H](O)C(=O)O; NMeS = CN[C@@H](CO)C(=O)O; NMeA = CN[C@@H](C)C(=O)O; dNMeA = CN[C@H](C)C(=O)O

tested on: A549; assay: Cytotoxicity against human A549 cells assessed as cell growth inhibition incubated for 72 hrs by MTS assay; assay type: functional, cell-based; conditions: A549, 72 h

Compared with `CC[C@H](C)[C@H]1C(=O)N[C@@H](C)C(=O)N(C)[C@@H](CC(C)C)C(=O)N[C@@H](Cc2ccc(OC)cc2)C(=O)N(C)CCCC[C@H](N(C)C(=O)[C@H](CC(C)C)NC(=O)[C@H](C)N(C)C(=O)[C@H](OC(=O)[C@H](C(C)C)N(C)C)C(C)C)C(=O)N(C)[C@@H](C)C(=O)N1C` (NMe2Val-[dHiv][NMeA]L[NMeLys(Me)][NMeA][NMeI]A[NMeL]Y(Me); lactam 4-C), `CC[C@H](C)[C@H]1C(=O)N[C@@H](C)C(=O)N(C)[C@@H](CC(C)C)C(=O)N[C@H](Cc2ccc(OC)cc2)C(=O)N(C)CCCC[C@H](N(C)C(=O)[C@H](CC(C)C)N(C)C(=O)[C@H](C)N(C)C(=O)[C@H](OC(=O)[C@H](C(C)C)N(C)C)C(C)C)C(=O)N(C)[C@@H](C)C(=O)N1C` (NMe2Val-[dHiv][NMeA][NMeL][NMeLys(Me)][NMeA][NMeI]A[NMeL][dY](Me); lactam 4-C) is higher in IC50: 3.4 µM for the first, over 10 µM for the second.

`CC[C@H](C)[C@@H]1NC(=O)[C@H](C)N(C)C(=O)[C@@H](N(C)C(=O)[C@H](CC(C)C)N(C)C(=O)[C@H](C)N(C)C(=O)[C@H](OC(=O)[C@H](C(C)C)N(C)C)C(C)C)CCCCN(C)C(=O)[C@H](Cc2ccc(OC)cc2)NC(=O)[C@H](CC(C)C)N(C)C(=O)[C@H](C)NC1=O` (NMe2Val-[dHiv][NMeA][NMeL][NMeLys(Me)][NMeA]IA[NMeL]Y(Me); lactam 4-C) and `CC[C@H](C)[C@H]1C(=O)N[C@H](C)C(=O)N(C)[C@@H](CC(C)C)C(=O)N[C@@H](Cc2ccc(OC)cc2)C(=O)N(C)CCCC[C@H](N(C)C(=O)[C@H](CC(C)C)N(C)C(=O)[C@H](C)N(C)C(=O)[C@H](OC(=O)[C@H](C(C)C)N(C)C)C(C)C)C(=O)N(C)[C@@H](C)C(=O)N1C` (NMe2Val-[dHiv][NMeA][NMeL][NMeLys(Me)][NMeA][NMeI][dA][NMeL]Y(Me); lactam 4-C) cannot be ordered by IC50: over 10 µM for the first, over 10 µM for the second.

`CC[C@H](C)[C@H]1C(=O)N[C@@H](C)C(=O)N(C)[C@@H](CC(C)C)C(=O)N[C@@H](Cc2ccccn2)C(=O)N(C)CCCC[C@H](N(C)C(=O)[C@H](CC(C)C)N(C)C(=O)[C@H](C)N(C)C(=O)[C@H](OC(=O)[C@H](C(C)C)N(C)C)C(C)C)C(=O)N(C)[C@@H](C)C(=O)N1C` (NMe2Val-[dHiv][NMeA][NMeL][NMeLys(Me)][NMeA][NMeI]A[NMeL][2Pal]; lactam 4-C) and `CC[C@H](C)[C@H]1C(=O)N[C@@H](C)C(=O)N(C)[C@@H](CC(C)C)C(=O)N[C@@H](Cc2cccnc2)C(=O)N(C)CCCC[C@H](N(C)C(=O)[C@H](CC(C)C)N(C)C(=O)[C@H](C)N(C)C(=O)[C@H](OC(=O)[C@H](C(C)C)N(C)C)C(C)C)C(=O)N(C)[C@@H](C)C(=O)N1C` (NMe2Val-[dHiv][NMeA][NMeL][NMeLys(Me)][NMeA][NMeI]A[NMeL][3Pal]; lactam 4-C) cannot be ordered by IC50: over 10 µM for the first, over 10 µM for the second.

`CC[C@H](C)[C@H]1C(=O)N[C@@H](C)C(=O)N(C)[C@@H](CC(C)C)C(=O)N[C@@H](Cc2ccncc2)C(=O)N(C)CCCC[C@H](N(C)C(=O)[C@H](CC(C)C)N(C)C(=O)[C@H](C)N(C)C(=O)[C@H](OC(=O)[C@H](C(C)C)N(C)C)C(C)C)C(=O)N(C)[C@@H](C)C(=O)N1C` (NMe2Val-[dHiv][NMeA][NMeL][NMeLys(Me)][NMeA][NMeI]A[NMeL][4Pal]; lactam 4-C) and `CC[C@H](C)[C@@H]1C(=O)N[C@@H](C)C(=O)N(C)[C@@H](CC(C)C)C(=O)N[C@@H](Cc2ccc(OC)cc2)C(=O)N(C)CCCC[C@H](N(C)C(=O)[C@H](CC(C)C)N(C)C(=O)[C@H](C)N(C)C(=O)[C@H](OC(=O)[C@H](C(C)C)N(C)C)C(C)C)C(=O)N(C)[C@@H](C)C(=O)N1C` (NMe2Val-[dHiv][NMeA][NMeL][NMeLys(Me)][NMeA][dNMeaIle]A[NMeL]Y(Me); lactam 4-C) cannot be ordered by IC50: over 10 µM for the first, over 10 µM for the second.

`CC[C@H](C)[C@H]1C(=O)N[C@@H](C)C(=O)N(C)[C@@H](CC(C)C)C(=O)N[C@@H](Cc2ccc(OC)cc2)C(=O)N(C)CCCC[C@H](N(C)C(=O)[C@H](CC(C)C)N(C)C(=O)[C@H](C)N(C)C(=O)[C@H](OC(=O)[C@H](C(C)C)N(C)C)C(C)C)C(=O)N(C)[C@H](C)C(=O)N1C` (NMe2Val-[dHiv][NMeA][NMeL][NMeLys(Me)][dNMeA][NMeI]A[NMeL]Y(Me); lactam 4-C) and `CC[C@H](C)[C@H]1C(=O)N[C@@H](C)C(=O)N(C)[C@@H](CC(C)C)C(=O)N[C@@H](Cc2ccc(OC)cc2)C(=O)NCCC[C@H](N(C)C(=O)[C@H](CC(C)C)N(C)C(=O)[C@H](C)N(C)C(=O)[C@H](OC(=O)[C@H](C(C)C)N(C)C)C(C)C)C(=O)N(C)[C@@H](C)C(=O)N1C` (NMe2Val-[dHiv][NMeA][NMeL][NMeOrn][NMeA][NMeI]A[NMeL]Y(Me); lactam 4-C) cannot be ordered by IC50: over 10 µM for the first, over 10 µM for the second.

First: CC[C@H](C)[C@H]1C(=O)N[C@@H](C)C(=O)N(C)[C@@H](CC(C)C)C(=O)N[C@@H](Cc2ccc(OC)cc2)C(=O)NCCC[C@@H](N(C)C(=O)[C@H](CC(C)C)N(C)C(=O)[C@H](C)N(C)C(=O)[C@H](OC(=O)[C@H](C(C)C)N(C)C)C(C)C)C(=O)N(C)[C@@H](C)C(=O)N1C (NMe2Val-[dHiv][NMeA][NMeL][dNMeOrn][NMeA][NMeI]A[NMeL]Y(Me); lactam 4-C)
Second: CC[C@H](C)[C@H]1C(=O)N[C@@H](C)C(=O)N(C)[C@@H](CC(C)C)C(=O)N[C@@H](Cc2ccc(-c3ccccc3)cc2)C(=O)N(C)[C@H](C)C(=O)O[C@H](C)[C@H](N(C)C(=O)[C@H](CC(C)C)N(C)C(=O)[C@H](COC)N(C)C(=O)[C@H](OC(=O)[C@H](C(C)C)N(C)C)C(C)C)C(=O)N(C)[C@@H](COC)C(=O)N1C (NMe2Val-[dHiv][NMeS](Me)[NMeL][NMeT][NMeS](Me)[NMeI]A[NMeL][Bip][dNMeA]; ester 4-C)
The IC50 of the first is higher: over 10 µM for the first, 0.00011 µM for the second.
